Measured values taken from PubChem BioAssay AID651552 (The Scripps Research Institute Molecular Screening Center, 2012).
Activity calls are given as the source filed them. No rule for the calls is given here.

Biological target: beta-lactamase TEM-1 reporter (bacterial) (UniProt Q932Y6)
Assay: beta-lactamase reporter inhibitor potency, dose response, artefact control for NOD2-RIPK2 interaction inhibitor project, BLA reporter cells, FRET fluorescence (AID 651552)
Details: HEK293 BLA reporter cells

`C=CCn1c(O)c(C2=c3ccccc3=NC2=O)c2ccccc21` was tested, and the IC50 was > 49.7 µM (inactive).

In the case of `COc1ccc(C[C@H]2NC[C@H](O)[C@H]2OC(C)=O)cc1`, the IC50 is reported as > 49.8 µM (inactive).
